Assay results reported in patent publication US6914045B2, “Glycopeptide antibiotics” (Wyeth Holdings Corporation, priority 2001, dated 2005).
Where two headings read alike, the source gives them in different places.

Assays:
Assay in all cases: in vitro antibacterial evaluation, MIC by broth dilution
Type in all cases: cell-based
Enterococcus sp. = test system: Enterococcus sp.
How it was run: (§1)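 MIC, the lowest antibiotic concentration preventing growth, was read across 64-0.06 μg/mL with 5×10^5 CFU/mL inoculum. Method followed NCCLS M7-A2 broth dilution using Mueller-Hinton II; Gram-positive strains covered recent methicillin-, penicillin- and/or vancomycin-resistant clinical isolates.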

Staphylococcus sp. = test system: Staphylococcus sp.
How it was run: as §1

Streptococcus sp. = test system: Streptococcus sp.
How it was run: as §1

Escherichia coli = test system: Escherichia coli
How it was run: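 MIC is the lowest antibiotic concentration (tested 64-0.06 μg/mL) preventing growth of a 5×10^5 CFU/mL inoculum. Determined by broth dilution in Mueller-Hinton II medium following NCCLS standard M7-A2.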

[1] = strain ATCC 29212, broth dilution, 18 hours at 35° C.
[2] = strain GC 2242, broth dilution, 18 hours at 35° C.
[3] = strain GC 2243, broth dilution, 18 hours at 35° C.
[4] = strain GC 2691, broth dilution, 18 hours at 35° C.
[5] = strain GC 3059, broth dilution, 18 hours at 35° C.
[6] = strain GC 4552, broth dilution, 18 hours at 35° C.
[7] = strain GC 4553, broth dilution, 18 hours at 35° C.
[8] = strain GC 4554, broth dilution, 18 hours at 35° C.
[9] = strain GC 4556, broth dilution, 18 hours at 35° C.
[10] = strain GC 4557, broth dilution, 18 hours at 35° C.
[11] = strain GC 4558, broth dilution, 18 hours at 35° C.
[12] = strain GC 6189, broth dilution, 18 hours at 35° C.
[13] = strain ATCC 29213, broth dilution, 18 hours at 35° C.
[14] = strain GC 1131, broth dilution, 18 hours at 35° C.
[15] = strain GC 3051, broth dilution, 18 hours at 35° C.
[16] = strain GC 3053, broth dilution, 18 hours at 35° C.
[17] = strain GC 4541, broth dilution, 18 hours at 35° C.
[18] = strain GC 4542, broth dilution, 18 hours at 35° C.
[19] = strain GC 4543, broth dilution, 18 hours at 35° C.
[20] = strain GC 4544, broth dilution, 18 hours at 35° C.
[21] = strain GC 4545, broth dilution, 18 hours at 35° C.
[22] = strain GC 4546, broth dilution, 18 hours at 35° C.
[23] = strain GC 4547, broth dilution, 18 hours at 35° C.
[24] = strain GC 4548, broth dilution, 18 hours at 35° C.
[25] = strain GC 4549, broth dilution, 18 hours at 35° C.
[26] = strain GC 4551, broth dilution, 18 hours at 35° C.
[27] = strain GC 6257, broth dilution, 18 hours at 35° C.
[28] = strain ATCC 6301, broth dilution, 18 hours at 35° C.
[29] = strain GC 1894, broth dilution, 18 hours at 35° C.
[30] = strain GC 4563, broth dilution, 18 hours at 35° C.
[31] = strain GC 4564, broth dilution, 18 hours at 35° C.
[32] = strain GC 4565, broth dilution, 18 hours at 35° C.
[33] = strain ATCC 25922, broth dilution, 18 hours at 35° C.
[34] = strain GC 4559, broth dilution, 18 hours at 35° C.
[35] = strain GC 4560, broth dilution, 18 hours at 35° C.

CC(c1ccccc1)C1NC(=O)CNC(=O)C(CO)NC(=O)C(C(O)C2CNC(=N)N2C2OC(CO)C(O)C(O)C2O)NC(=O)C(C(O)C2CNC(=N)N2)NC(=O)C(Cc2ccc3oc(C=C(c4ccccc4)c4ccccc4)nc3c2)NC1=O (stereo not drawn) [Example 39, Cyclo[3-[2-(2,2-diphenylethenyl)-1,3-benzoxazol-5-yl]alanyl-3-(2-iminoimidazolidin-4-yl)seryl-3-(3-hexopyranosyl-2-iminoimidazolidin-4-yl)serylserylglycyl-β-methylphenylalanyl]]
16 µg/mL: MIC Enterococcus faecalis (ATCC 29212) (Enterococcus sp.; [1]) | MIC Enterococcus faecalis (GC 2242) (Enterococcus sp.; [2]) | MIC Enterococcus faecalis (GC 2691) (Enterococcus sp.; [4]) | MIC Enterococcus faecalis (GC 3059) (Enterococcus sp.; [5]) | MIC Enterococcus faecalis (GC 4552) (Enterococcus sp.; [6]) | MIC Enterococcus faecalis (GC 6189) (Enterococcus sp.; [12]) | MIC Staphylococcus aureus (ATCC 29213) (Staphylococcus sp.; [13]) | MIC Staphylococcus aureus (GC 1131) (Staphylococcus sp.; [14]) | MIC Staphylococcus aureus (GC 3051) (Staphylococcus sp.; [15]) | MIC Staphylococcus aureus (GC 4541) (Staphylococcus sp.; [17]) | MIC Staphylococcus aureus (GC 4542) (Staphylococcus sp.; [18]) | MIC Staphylococcus aureus-SMITH (GC 4543) (Staphylococcus sp.; [19]) | MIC Staphylococcus aureus (GC 4544) (Staphylococcus sp.; [20]) | MIC Staphylococcus aureus (GC 4545) (Staphylococcus sp.; [21]) | MIC Streptococcus agalactiae (GC 4564) (Streptococcus sp.; [31]) | MIC Streptococcus pneumoniae (GC 4565) (Streptococcus sp.; [32]) | MIC Escherichia coli (GC 4560) (Escherichia coli; [35])
32 µg/mL: MIC Enterococcus faecalis (GC 4554) (Enterococcus sp.; [8]) | MIC Enterococcus faecium (GC 4556) (Enterococcus sp.; [9])
128 µg/mL: MIC Escherichia coli (ATCC 25922) (Escherichia coli; [33]) | MIC Escherichia coli (GC 4559) (Escherichia coli; [34])
8 µg/mL: MIC Enterococcus faecium (GC 2243) (Enterococcus sp.; [3]) | MIC Enterococcus faecalis (GC 4553) (Enterococcus sp.; [7]) | MIC Enterococcus faecium (GC 4557) (Enterococcus sp.; [10]) | MIC Enterococcus avium (GC 4558) (Enterococcus sp.; [11]) | MIC Staphylococcus aureus (GC 3053) (Staphylococcus sp.; [16]) | MIC Staphylococcus haemolyticus (GC 4546) (Staphylococcus sp.; [22]) | MIC Coagulase Negative Staphylococcus (GC 4547) (Staphylococcus sp.; [23]) | MIC Coagulase Negative Staphylococcus (GC 4548) (Staphylococcus sp.; [24]) | MIC Coagulase Negative Staphylococcus (GC 4551) (Staphylococcus sp.; [26]) | MIC Streptococcus pneumoniae (ATCC 6301) (Streptococcus sp.; [28]) | MIC Streptococcus pneumoniae (GC 1894) (Streptococcus sp.; [29])
4 µg/mL: MIC Coagulase Negative Staphylococcus (GC 4549) (Staphylococcus sp.; [25]) | MIC Coagulase Negative Staphylococcus (GC 6257) (Staphylococcus sp.; [27]) | MIC Streptococcus pyogenes (GC 4563) (Streptococcus sp.; [30])

Cyclo[3-[[2-(2,3,4,6-tetra-O-benzoylhexopyranosyl)amino]-1,3-benzoxazol-5-yl]alanyl-3-(2-iminoimidazolidin-4-yl)seryl-3-(3-hexopyranosyl-2-iminoimidazolidin 4-yl)seryl-serylglycyl-β-methylphenylalanyl] [Example 44]
>64 µg/mL: MIC Escherichia coli (ATCC 25922) (Escherichia coli) | MIC Escherichia coli (GC 4559) (Escherichia coli)
64 µg/mL: MIC Coagulase Negative Staphylococcus (GC 4547) (Staphylococcus sp.) | MIC Staphylococcus aureus (ATCC 29213) (Staphylococcus sp.) | MIC Staphylococcus aureus (GC 1131) (Staphylococcus sp.) | MIC Staphylococcus aureus (GC 3051) (Staphylococcus sp.) | MIC Staphylococcus aureus (GC 4541) (Staphylococcus sp.) | MIC Staphylococcus aureus (GC 4542) (Staphylococcus sp.) | MIC Staphylococcus haemolyticus (GC 4546) (Staphylococcus sp.) | MIC Escherichia coli (GC 4560) (Escherichia coli)
8 µg/mL: MIC Enterococcus faecalis (GC 4553) (Enterococcus sp.) | MIC Enterococcus faecium (GC 2243) (Enterococcus sp.) | MIC Enterococcus faecium (GC 4557) (Enterococcus sp.) | MIC Coagulase Negative Staphylococcus (GC 4548) (Staphylococcus sp.) | MIC Coagulase Negative Staphylococcus (GC 6257) (Staphylococcus sp.) | MIC Streptococcus pneumoniae (ATCC 6301) (Streptococcus sp.)
32 µg/mL: MIC Enterococcus faecalis (GC 3059) (Enterococcus sp.) | MIC Enterococcus faecalis (GC 4554) (Enterococcus sp.) | MIC Enterococcus faecium (GC 4556) (Enterococcus sp.) | MIC Staphylococcus aureus (GC 3053) (Staphylococcus sp.) | MIC Staphylococcus aureus-SMITH (GC 4543) (Staphylococcus sp.) | MIC Streptococcus pneumoniae (GC 4565) (Streptococcus sp.)
4 µg/mL: MIC Enterococcus avium (GC 4558) (Enterococcus sp.) | MIC Streptococcus pyogenes (GC 4563) (Streptococcus sp.)
2 µg/mL: MIC Coagulase Negative Staphylococcus (GC 4549) (Staphylococcus sp.)
16 µg/mL: MIC Enterococcus faecalis (ATCC 29212) (Enterococcus sp.) | MIC Enterococcus faecalis (GC 2242) (Enterococcus sp.) | MIC Enterococcus faecalis (GC 2691) (Enterococcus sp.) | MIC Enterococcus faecalis (GC 4552) (Enterococcus sp.) | MIC Enterococcus faecalis (GC 6189) (Enterococcus sp.) | MIC Coagulase Negative Staphylococcus (GC 4551) (Staphylococcus sp.) | MIC Staphylococcus aureus (GC 4544) (Staphylococcus sp.) | MIC Staphylococcus aureus (GC 4545) (Staphylococcus sp.) | MIC Streptococcus agalactiae (GC 4564) (Streptococcus sp.) | MIC Streptococcus pneumoniae (GC 1894) (Streptococcus sp.)

CC(c1ccccc1)C1NC(=O)CNC(=O)C(CO)NC(=O)C(C(O)C2CNC(=N)N2C2OC(CO)C(O)C(O)C2O)NC(=O)C(C(O)C2CNC(=N)N2)NC(=O)C(Cc2ccc(O)c(NC(=O)c3ccccc3)c2)NC1=O (stereo not drawn) [Example 17, Cyclo[glycyl-β-methylphenylalanyl-3-(benzamido)tyrosyl-3-(2-iminoimidazolidin-4-yl)seryl-3-(3-hexopyranosyl-2-iminoimidazolidin-4-yl)serylseryl]]
>64 µg/mL: MIC Enterococcus faecalis (ATCC 29212) (Enterococcus sp.; [1]) | MIC Enterococcus faecalis (GC 2242) (Enterococcus sp.; [2]) | MIC Enterococcus faecium (GC 2243) (Enterococcus sp.; [3]) | MIC Enterococcus faecalis (GC 2691) (Enterococcus sp.; [4]) | MIC Enterococcus faecalis (GC 3059) (Enterococcus sp.; [5]) | MIC Enterococcus faecalis (GC 4552) (Enterococcus sp.; [6]) | MIC Enterococcus faecalis (GC 4553) (Enterococcus sp.; [7]) | MIC Enterococcus faecalis (GC 4554) (Enterococcus sp.; [8]) | MIC Enterococcus faecalis (GC 6189) (Enterococcus sp.; [12]) | MIC Staphylococcus aureus (ATCC 29213) (Staphylococcus sp.; [13]) | MIC Staphylococcus aureus (GC 1131) (Staphylococcus sp.; [14]) | MIC Staphylococcus aureus (GC 3051) (Staphylococcus sp.; [15]) | MIC Staphylococcus aureus (GC 3053) (Staphylococcus sp.; [16]) | MIC Staphylococcus aureus (GC 4541) (Staphylococcus sp.; [17]) | MIC Staphylococcus aureus (GC 4542) (Staphylococcus sp.; [18]) | MIC Staphylococcus aureus-SMITH (GC 4543) (Staphylococcus sp.; [19]) | MIC Staphylococcus aureus (GC 4544) (Staphylococcus sp.; [20]) | MIC Staphylococcus aureus (GC 4545) (Staphylococcus sp.; [21]) | MIC Staphylococcus haemolyticus (GC 4546) (Staphylococcus sp.; [22]) | MIC Coagulase Negative Staphylococcus (GC 4548) (Staphylococcus sp.; [24]) | MIC Coagulase Negative Staphylococcus (GC 4551) (Staphylococcus sp.; [26]) | MIC Streptococcus pneumoniae (ATCC 6301) (Streptococcus sp.; [28]) | MIC Streptococcus pyogenes (GC 4563) (Streptococcus sp.; [30]) | MIC Streptococcus agalactiae (GC 4564) (Streptococcus sp.; [31]) | MIC Streptococcus pneumoniae (GC 4565) (Streptococcus sp.; [32])
64 µg/mL: MIC Enterococcus faecium (GC 4556) (Enterococcus sp.; [9]) | MIC Enterococcus faecium (GC 4557) (Enterococcus sp.; [10]) | MIC Enterococcus avium (GC 4558) (Enterococcus sp.; [11]) | MIC Coagulase Negative Staphylococcus (GC 4547) (Staphylococcus sp.; [23]) | MIC Coagulase Negative Staphylococcus (GC 6257) (Staphylococcus sp.; [27]) | MIC Streptococcus pneumoniae (GC 1894) (Streptococcus sp.; [29]) | MIC Escherichia coli (ATCC 25922) (Escherichia coli; [33])
32 µg/mL: MIC Coagulase Negative Staphylococcus (GC 4549) (Staphylococcus sp.; [25]) | MIC Escherichia coli (GC 4559) (Escherichia coli; [34])
16 µg/mL: MIC Escherichia coli (GC 4560) (Escherichia coli; [35])
